Assay results as given in patent US10842849B2, “Methods for promoting neuronal outgrowth by insulin-like growth factor binding protein-like 1 (IGFBPL-1) in glaucoma or leber's optic neuropathy” (The Schepens Eye Research Institute, Inc., priority 2011, dated 2020).
“Also recorded” adds a separate entry of the source.

B1: IGFBPL-1: insulin-like growth factor binding protein-like 1 protein; mouse recombinant IGFBPL-1 used in tests (protein)
chain: LGLRDAGRRHPECSPCQQDRCPAPSPCPAPWISARDECGCCARCLGAEGASCGGPVGSRCGPGLVCASRASGTAPEGTGLCVCAQRGAVCGSDGRSYSSICALRLRARHAPRAHHGHLHKARDGPCEFAPVVLMPPRDIHNVTGTQVFLSCEVKAVPTPVITWKKVKHSPEGTEGLEELPGDHVNIAVQVRGGPSDHETTSWILINPLRKEDEGVYHCHAANAIGEAQSHGTVTVLDLNRYKSLYSSVPGDLL

What was measured:
[1] = tested on: Retinal ganglion cells (RGCs) isolated from P0 mice; experiment: P0 RGC culture: neurite outgrowth and survival; type: cell-based, mouse; conditions: for effect on IGFBPL-1 induced neurite/axon growth: P0 RGC cultures treated with IGFBPL-1 plus inhibitor or neutralizing antibody; for RGC neurite outgrowth / axonal extension: P0 RGC cultures, 3 days, beta-III-tubulin/Tuj1 immunostaining; for RGC cell survival: P0 RGCs
Excerpt: The experiments described herein were aimed to elucidate the functional role and mechanisms of IGFBPL-1 on RGC survival and axon extension in mice. The expression pattern of IGFBPL-1 in the developing retina was examined in retinas at different developmental stage, ranging from embryonic day 16 through adult, using immunohistochemistry, western blot and quantitative RT-PCR. Retinal ganglion cells were purified using magnetic beads conjugated with Thy1.2 antibody from new born mouse pups at postnatal day 0 (P0), and cultured for up to five days in the presence or absence of IGFBPL-1 and/or IGF-I proteins. RGC survival and axonal growth were evaluated after three days in culture following LIVE/DEAD® and β-III-tubulin immunostaining. Lentiviral shRNAs were used to knockdown the expression of IGFBPL-1 and/or IGF-I in culture. The functional role of IGFBPL-1 in RGC development was further evaluated in IGFBPL-1 knockout (KO) mouse. RGC morphology and number were recorded using retinal vertical sections or whole-mount preparation. The number of axons in the optic nerve head was counted under electron microscopy. Data collected from the IGFBPL-1 KO mice were compared with that obtained from age-matched wildtype C57BL/6 littermates.
RGC neurite outgrowth in the absence (FIG. 3A) and presence (FIG. 3B) of IGFBPL-1 promotes in RGC cell culture. Retinal ganglion cells (RGCs) isolated from P0 mice were cultured in the absence (control) and presence of IGFBPL-1 (IGFBPL-1) for 3 days and were immunolabeled with primary antibody against a RGC specific marker Tuj1 (red). Note that RGCs extend long neurite in IGFBPL-1-treated cultures as compared to control culture group.

[2] = tested on: Akt; experiment: P10 retina incubation, western blot of phosphorylated Akt; type: cell-based, mouse; conditions: P10 retinas incubated 30 min or 6 hours at 37° C.
Experimental: (§1) P10 retinas were dissected and incubated with IGF-I, IGFBPL1 and IGF-I+IGFBPL1 for 30 min or 6 hours at 37° C. Retina lysates were prepared for western blotting, using antibodies against IGF-1-mediated downstream signals, mTOR and Akt.

[3] = tested on: mTOR; experiment: P10 retina incubation, western blot of phosphorylated mTOR; type: cell-based, mouse; conditions: P10 retinas incubated 30 min or 6 hours at 37° C.
Experimental: as §1

[4] = tested on: cultured RGCs derived from P10 mice; experiment: P10 RGC culture: axon length and survival; type: cell-based, mouse; conditions: for axon length / neurite outgrowth: treated 3 days
Experimental: Cells were treated with control, IGF-I, IGFBPL1 or both for 3 days and were immunostained with βIII-tubulin to reveal axons.

[5] = tested on: RGC axons after optic nerve crush; experiment: Optic nerve regeneration in vivo after optic nerve crush; conditions: intravitreous delivery, optic nerve crush in mice
Excerpt: IGF-1 ([…]). IGFBPL-1 (n=7). IGF1+IGFBPL1 (n=6).

[6] = tested on: hippocampal neurons; experiment: Hippocampal neuronal cultures: neurite outgrowth; type: cell-based; conditions: beta III tubulin staining
Excerpt: FIG. 9B are histograms showing quantification of neurite outgrowth in control; and neurons exposed to IGFBPL-1; IGF-1; IGFBPL-1+IGF-1; IGFBPL-1+H1356; IGFBPL-1+Neut. Ab; IGFBPL-1+IGFI-1+Neut. Ab.

[7] = molecular target: IGF-1 (Mus musculus, UniProt P05017); experiment: Co-immunoprecipitation of IGFBPL-1 and IGF-1 (western blot); type: binding; conditions: mouse recombinant proteins and retina lysates
Excerpt: FIGS. 5(I) A and B and FIGS. 5 (II) A and B are western blots showing binding of IGFBP-1 with IGF-I using mouse recombinant IGFBPL-1 and IGF-1 (FIG. 5(I)) and retina lysates (FIG. 5(II)).

IGF-1, sequence (P05017 1-118 limits assumed): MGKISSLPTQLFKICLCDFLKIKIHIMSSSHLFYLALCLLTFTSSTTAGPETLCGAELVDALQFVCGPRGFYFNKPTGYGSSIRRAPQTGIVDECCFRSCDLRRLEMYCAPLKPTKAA

Molecule | effect on IGFBPL-1 induced neurite/axon growth [1] | effect on IGFBPL-1 induced neurite/axon growth ([1]; listed as inhibitor of IGF-I and IGFBP binding) | phosphorylation of Akt [2] | RGC neurite outgrowth / axonal extension [1] | RGC neurite outgrowth / axonal extension ([1]; listed as IGF-I) | RGC cell survival [1] | phosphorylation of mTOR [3] | RGC survival [4] | axon length / neurite outgrowth [4] | RGC neurite outgrowth / axonal extension ([1]; listed as IGFBPL1) | regeneration of RGC axons [5] | neurite growth in hippocampal neuronal cultures [6] | binding / interaction with IGF-1 [7]
O=C(O)c1cc2cc(O)c(O)cc2c(C(=O)c2ccc(O)c(O)c2)n1 [NBI-31772, reference compound] | abolishes the neurite growth effect of IGFBPL-1 | abolishes the growth promoting activity of IGFBPL1 | – | – | – | – | – | – | – | – | – | – | –
IGF-1: Insulin Growth Factor 1 protein | – | – | increased level of phosphorylated mTOR and Akt | robust neurite outgrowth | promotes both neurite outgrowth and cell survival | promotes both neurite outgrowth and cell survival | increased level of phosphorylated mTOR and Akt | affect the survival | does not promote neurite outgrowth | – | – | – | –
B1 | – | – | – | significantly promoted axonal extension; also recorded: promotes RGC neurite outgrowth; also recorded: stimulates neurite outgrowth; also recorded: robust neurite outgrowth | – | promotes both neurite outgrowth and cell survival | prolongs the phosphorylation | affect the survival | does not promote neurite outgrowth | promotes both neurite outgrowth and cell survival | significantly promotes the regeneration of RGC axons | induced neurite growth | directly interacts with IGF-1
